Assay [1] in a line: DPPH radical scavenging assay. In kind it is biochemical. On the procedure: Different methods are available to quantify the antioxidant capacity of natural or novel molecules. Notable among these are the ABTS^•+ and DPPH^• methods, which measure the quenching efficiency in vitro for known concentrations of preformed radicals. In this work, the DPPH^• colorimetric assay was carried out. Measurements were recorded on a BioTeck PowerWave XS spectrophotometer (BioTeck Instruments, Winooski, VT, USA) and data were collected using KCJunior v.1.41. software (BioTeck Instruments, Winooski, VT, USA). Compounds with potent activity were selected to further determine their protective effect against ROS-induced cell death caused by H2O2.
DPPH colorimetric assay was performed to determine the in vitro radical scavenging activity of the acylselenourea derivatives. DPPH assay was performed as described by Svinyarov. For each acylselenourea, a stock solution of 1 mg/mL in dimethyl sulfoxide (DMSO) was made, and these solutions were used to prepare the different concentrations employed in the assay. The compounds were tested at two different concentrations (0.003 and 0.03 mg/mL). Intermediate solutions were prepared in methanol and a volume of 100 µL of each was added to each well of the plate. Then, 100 µL of DPPH^• (previously prepared at a concentration of 0.04 mg/mL in methanol and preserved in the dark) was added to the previous methanolic acylselenourea solutions. The discoloration of the purple radical to the yellow reduced form was followed at 517 nm at different time points (0, 5, 15, 30, 60, 90, and 120 min). Ascorbic acid and trolox were used as positive controls. All measurements were carried out in triplicate. Results are expressed as the percentage of the radicals scavenged, calculated using the following formula: (1) % DPPH radical scavenging=Acontrol - Asample/Acontrol × 100 where Acontrol refers to the absorbance of the negative control and Asample refers to the absorbance of the tested compounds. Results are expressed as percentage of DPPH radical scavenging ± SD.
(In general: DPPH is a stable violet radical that fades when it is reduced.)

In another assay the test system is DU-145 cells. The assay can be described thus: Protective effects against H2O2-induced oxidative stress in DU-145 cells (MTT). The assay is classed as cell-based, human. Particulars: for Increase-fold: increase-fold of cell survival; for Cell growth inhibition (%): cells without compounds. On the procedure:
Cells were treated with the selected compounds and then oxidative damage to DU-145 cells was induced using different concentrations of H2O2 (200, 250 and 300 µM), and cell viability was assessed by the MTT method. Briefly, 2.5 × 10^4 DU-145 cells per well were added in 96-well plates. After 24 h of incubation, DMSO, 1.I, 2.I, 5.I, 7.II, 10.II, and ascorbic acid were added to each well at two different concentrations (0.0015 mg/mL and 0.0003 mg/mL) and incubated for 1 h. After that, H2O2 was added at the concentrations of 200, 250, and 300 µM, and the cells were incubated for 12 h to induce cell damage. MTT assay was used to measure cell viability. For each treatment, the mean cell viability was calculated from three independent experiments. The DMSO-treated controls were assigned with a cell viability value of 100% (Vcontrol). The results are expressed as a cell growth inhibition % caused by H2O2 and the increased fold of cell survival, as follows: • Cells without compounds, only treated with H2O2: (2) % Cell growth inhibition=Acontrol - Asample/Acontrol × 100
• Cells treated with compounds and H2O2:
(3) % Cell growth inhibition=Asample (compound) - Asample (compound+H2O2)/Acontrol × 100
(4) Increase-fold of cell survival=% cell growth inhibition (H2O2)/% cell growth inhibition (compound+ H2O2)
The standard error of the mean (SEM) was calculated in at least three independent experiments performed in quadruplicates.

The inhibition is how much of the control response was suppressed. A low value points to a response near the control. For the compound `O=C1O[C@H]([C@@H](O)CO)C(O)=C1O` [Asc. Acid, ascorbic acid, reference compound], the inhibition was found to be 33.5 ± 0.5% in assay [1] (0.003 mg/mL, 0 min); 33.6 ± 0.4% in assay [1] (0.003 mg/mL, 5 min); 34.5 ± 1.6% in assay [1] (0.003 mg/mL, 15 min); 34.1 ± 1.1% in assay [1] (0.003 mg/mL, 30 min); 34 ± 0.9% in assay [1] (0.003 mg/mL, 60 min); 34 ± 0.8% in assay [1] (0.003 mg/mL, 90 min). Moreover, the inhibition in assay [1] (0.003 mg/mL, 120 min) was 34 ± 0.7%; in assay [1] (0.03 mg/mL, 0 min), 96.4 ± 0.2%; in assay [1] (0.03 mg/mL, 5 min), 96.4 ± 0.1%; in assay [1] (0.03 mg/mL, 15 min), 96.9 ± 0.5%; in assay [1] (0.03 mg/mL, 30 min), 96.9 ± 0.5%; in assay [1] (0.03 mg/mL, 60 min), 96.6 ± 0.1%. In addition, the inhibition was found to be 96.6 ± 0.1% in assay [1] (0.03 mg/mL, 90 min) and 96.6 ± 0.1% in assay [1] (0.03 mg/mL, 120 min). For the same compound, the Increase-fold in the assay with DU-145 cells (compound 0.0003 mg/mL, 200 µM H2O2, DU-145) was 4.2 ± 0.4; with DU-145 cells (compound 0.0003 mg/mL, 250 µM H2O2, DU-145), 3.1 ± 0.7; with DU-145 cells (compound 0.0003 mg/mL, 300 µM H2O2, DU-145) it was 2.2 ± 0.1; in the assay with DU-145 cells (compound 0.0015 mg/mL, 200 µM H2O2, DU-145) it was 3.6 ± 0.3; in the assay on DU-145 cells (compound 0.0015 mg/mL, 250 µM H2O2, DU-145) it was 2.9 ± 0.7; with DU-145 cells (compound 0.0015 mg/mL, 300 µM H2O2, DU-145), 1.5 ± 0.2.

Take `OO` [Compound H2O2, H2O2, reference compound]: the “Cell growth inhibition (%)” value in the assay on DU-145 cells (only treated with 200 µM H2O2, DU-145, 12 h) was 36.9 ± 6.9%; in the assay with DU-145 cells (only treated with 250 µM H2O2, DU-145, 12 h), 53.4 ± 6.1%; in the assay on DU-145 cells (only treated with 300 µM H2O2, DU-145, 12 h), 66.8 ± 6.3%.

Take `Cc1c(C)c2c(c(C)c1O)CCC(C)(C(=O)O)O2` (stereo not shown) [Trolox, trolox, reference compound]: the inhibition in assay [1] (0.003 mg/mL, 0 min) came out at 28.4 ± 1%; in assay [1] (0.003 mg/mL, 5 min) it was 29.2 ± 1%; in assay [1] (0.003 mg/mL, 15 min), 29.2 ± 0.9%; in assay [1] (0.003 mg/mL, 30 min) it was 29.2 ± 0.8%; in assay [1] (0.003 mg/mL, 60 min) it was 29.2 ± 0.8%; in assay [1] (0.003 mg/mL, 90 min), 29.2%. Besides, the inhibition came to 29.1% in assay [1] (0.003 mg/mL, 120 min); 90.8 ± 2.3% in assay [1] (0.03 mg/mL, 0 min); 96.3 ± 0.1% in assay [1] (0.03 mg/mL, 5 min); 96.3 ± 0.2% in assay [1] (0.03 mg/mL, 15 min); 96.3 ± 0.2% in assay [1] (0.03 mg/mL, 30 min); 96.2 ± 0.2% in assay [1] (0.03 mg/mL, 60 min). Further, the inhibition in assay [1] (0.03 mg/mL, 90 min) amounted to 96.2 ± 0.2%; in assay [1] (0.03 mg/mL, 120 min), 96.2 ± 0.2%.

For the origin of these results see paper PMC10376326, “Novel Acylselenourea Derivatives: Dual Molecules with Anticancer and Radical Scavenging Activity” (Antioxidants, 2023).
